Results published in article PMC4552634, “A New Set of Chemical Starting Points with Plasmodium falciparum Transmission-Blocking Potential for Antimalarial Drug Discovery” (PLoS ONE, 2015).

test system: P. falciparum stage V gametocytes; experiment: microbe, parasite or virus in culture; design: BacTiter-Glo ATP luminescence viability of purified stage V gametocytes in 384-well plates, per cent inhibition versus DMSO; details: Plasmodium falciparum, 48 h, read-out: % Inhibition

SMILES	inhibition at 5 µM [%]
CCN(Cc1ccccc1)CC(O)c1ccc(Cl)c(Cl)c1 (centres unmarked) [TCMDC-142226]	14.8
Cc1cc(NN=Cc2cccc(F)c2)c2ccc(F)cc2n1 [TCMDC-142174]	-36.6
COc1ccc(C=NNc2cc(C)nc3ccccc23)c2ccccc12 [TCMDC-142185]	93.9
Cc1cc2nc(-c3cc(Br)ccc3O)c(-c3cc(Br)ccc3O)nc2cc1C [TCMDC-142220]	24.2
COc1ccc(CSC2CCCCC23NC(=S)NC3=S)cc1 (centres unmarked) [TCMDC-142273]	5.66
Oc1ccc(CCCc2cc(Oc3c(I)cc(CCc4ncc[nH]4)cc3I)ccc2O)cc1 [TCMDC-142308]	-67
[O-][s+]1nc(NCCCN(Cc2cccs2)c2ccccn2)c(NCc2ccccc2)n1 (centres unmarked) [TCMDC-142312]	5.1
Cc1ccc(Cc2cnc(NCCSCc3ccc(CN(C)C)s3)[nH]c2=O)cn1 [TCMDC-142304]	-3.6
Cc1cc(F)ccc1Nc1nc(N(C)c2ccccc2)c2cccc(OCCO)c2n1 [TCMDC-142334]	32.7
CCOc1ccc2c(NN=Cc3cc(OC)c(OC)c(OC)c3)cc(C)nc2c1 [TCMDC-142208]	101
CC1(C)N=C(N)N=C(N)N1c1ccc(Cl)c(Cl)c1 [TCMDC-142180]	61.6
CCOC(=O)c1cnc2c(OC)cc(OC)c(Cl)c2c1Nc1cccc(C)c1 [TCMDC-142241]	-99.9
COc1ccc2c(NN=Cc3ccc(F)cc3)ccnc2c1 [TCMDC-142135]	5.77
NC(=NCc1ccccc1)Nc1nc(-c2ccc(OCCCn3ccnc3)cc2)cs1 [TCMDC-142335]	8.33
Cc1cc(F)ccc1Nc1nc(N(C)c2ccccc2)c2cc(OCCCN(C)C)ccc2n1 [TCMDC-142332]	57.7
COc1cc(OC)c(OC)cc1C=NNc1cc(C)nc2ccccc12 [TCMDC-142198]	100
COc1cccc2c(N/N=C/c3cccc([N+](=O)[O-])c3)ccnc12 [TCMDC-142142]	-28.6

SMILES	inhibition at 5 µM [%]
Cc1ccc(Cc2cnc(NCCSCc3ccc(CN4CCOCC4)o3)[nH]c2=O)cn1 [TCMDC-142303]	-5.99
Cc1ccccc1Nc1nc(NCCCO)c2ccccc2n1 [TCMDC-142327]	41.9
CCN(CC)Cc1cc(NC(=O)c2ccccc2O)ccc1Oc1ccc(Cl)cc1 [TCMDC-142283]	-6.19
Fc1ccc2c(NN=CC=Cc3ccccc3)ccnc2c1 [TCMDC-142112]	93.5
COc1ccc2nccc(NN=CC=Cc3ccccc3)c2c1 [TCMDC-142143]	39
CCCCCNc1nc(Nc2ccccc2C)nc2ccccc12 [TCMDC-142328]	26.7
Cc1cc(NN=Cc2cccc(Cl)c2)c2ccc(F)cc2n1 [TCMDC-142161]	-34
FC(F)(F)c1ccc2c(NN=Cc3cccc(Cl)c3)ccnc2c1 [TCMDC-142149]	-44.9
CC(C)(C)CC(C)(C)c1ccc(O)c(C(=O)Nc2cccc([N+](=O)[O-])c2)c1 [TCMDC-142210]	8.52
CCOc1cc(NCCSCc2nc[nH]c2C)nc2ccccc12 [TCMDC-142294]	26.1
Cc1ccc(O)cc1C[C@@H]1C(=O)CC[C@@]2(C)[C@H]1CC[C@]2(C)O [TCMDC-142266]	-40.3
CC(C)(C)CC(C)(C)c1ccc(O)c(C(=O)Nc2ccc([N+](=O)[O-])cc2)c1 [TCMDC-142211]	-13
CCCC(=O)c1cnc2cc(O)ccc2c1Nc1ccccc1C [TCMDC-142323]	-12.6
CCOc1ccc2c(NN=Cc3ccc(F)cc3)cc(C)nc2c1 [TCMDC-142201]	105
Cc1cc(Br)cnc1CCCCN=C1NC(=O)CN1C [TCMDC-142309]	5.26
N=C(N)c1cccc(OCCCOc2cccc(NC(=O)Nc3ccc([N+](=O)[O-])cc3)c2)c1 [TCMDC-142189]	24.9
CCOc1ccc2c(NN=Cc3cccc(OC)c3OC)cc(C)nc2c1 [TCMDC-142205]	40.8

same assay, conditions: Plasmodium falciparum, 48 h; read-out: % Inhibition

SMILES	inhibition at 5 µM [%]
CCCCCCCc1cc(O)c2c(c1)OC(C)(C)c1ccncc1-2 [TCMDC-142259]	6.2
